Data as given in BindingDB's records for doi:10.1021/jm030493t (Johnson & Johnson Pharmaceutical Research & Development, 2004).

Assay: Compound was tested for inhibition of gel-filtered platelet (GFP) aggregation induced by alpha-thrombin

IC50 [nM]	SMILES
83	CN[C@H](Cc1ccccc1)C(=O)N1CCCC1C(=O)N[C@H](C=O)CCCNC(=N)N (stereo partly drawn) [(S)-1-((R)-2-Methylamino-3-phenyl-propionyl)-pyrrolidine-2-carboxylic acid ((S)-1-formyl-4-guanidino-butyl)-amide]
32	CN[C@H](Cc1ccccc1)C(=O)N1CCC[C@H]1C(=O)N[C@@H](CCCN=C(N)N)C(=O)c1nc2ccccc2s1 [RWJ-50353]
